# Results: US10160771B2, “Hepatitis C virus inhibitors and uses thereof in preparation of drugs” (priority 2014, dated 2018)
# Legend:
# [1] = test system: HCV genotype 1b (HCV-1b) replicon cells; experiment: HCV genotype 1b replicon luciferase assay (EC50); type: cell-based, hepatitis C virus genotype 1b (Con1 clone); conditions: Hepatitis C virus, 72 h, 3 days, luciferase (Bright-Glo)
# Method in brief: (§1)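 EC50 by nonlinear fitting of % inhibition from Bright-Glo luciferase signal after 3-day, 37° C. compound exposure (5-fold, 6 points from 100, 10 or 1 nM; 0.5% DMSO; duplicates). Cells: 1a replicon from H77 (K1691R/K2040R/S2204I) or 1b from Con1 (E1202G/T1280I/K1846T), 8000 per well.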
# [2] = test system: HCV genotype 1a (HCV-1a) replicon cells; experiment: HCV genotype 1a replicon luciferase assay (EC50); type: cell-based, hepatitis C virus genotype 1a (H77 clone); conditions: Hepatitis C virus, 72 h, 3 days, luciferase (Bright-Glo)
# Method in brief: as §1
# [3] = Cell Titer-fluor cell activity assay in HCV-1b replicon cells (CC50); type: cell-based
# Method in brief: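 CC50 derived by nonlinear fitting of inhibition % from Cell Titer-fluor signal (405/515 nm, 30 min). Cells: genotype 1b Con1 replicon carrying E1202G, T1280I, K1846T, seeded 8000/well with compound for 3 days, 37 °C, 0.5% DMSO; 6 points, 5-fold dilution, top 100, 10 or 1 nM, duplicates.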
Compound,EC50 [1] [nM],EC50 [2] [nM],CC50 at 3 days [3] [nM]
COC(=O)N[C@H](C(=O)N1CCC[C@H]1c1ncc(-c2ccc(-c3ccc(-c4cnc([C@H]5C6CCC(C6)[C@@H]5C(=O)NCc5ccc(C(F)(F)F)nc5)[nH]4)cc3)cc2)[nH]1)C(C)C (stereo partly drawn) [AA_232_A],0.001 to 0.1,1 to 10,> 1
COC(=O)N[C@H](C(=O)N1CCC[C@H]1c1ncc(-c2ccc(-c3ccc(-c4[nH]c([C@H]5CCCN5C(=O)[C@@H](NC(=O)OC)C(C)OC)c5c4COC5)cc3)cc2)[nH]1)C(C)C (stereo partly drawn) [AG_079_B],0.101 to 1,1 to 10,> 5
COC(=O)N[C@H](C(=O)N1CCCC1c1[nH]c(-c2ccc(-c3ccc(-c4cnc([C@@H]5CCCN5C(=O)[C@@H](NC(=O)OC)C(C)C)[nH]4)cc3)cc2)c2c1COC2)C(C)C (stereo partly drawn) [AG_060],0.001 to 0.1,0.101 to 1,> 1
COC(=O)N[C@H](C(=O)N1CCC[C@H]1c1ncc(-c2ccc(-c3ccc(-c4cnc(C5C6CCC(C6)[C@H]5C(=O)NCc5ccc(C(F)(F)F)nc5)[nH]4)cc3)cc2)[nH]1)[C@@H](C)OC (stereo partly drawn) [AA_264_B],0.101 to 1,10 to 100,> 1
COC(=O)N[C@H](C(=O)N1CCC[C@H]1c1ncc(-c2ccc(-c3ccc(-c4cnc([C@@H]5[C@H]6CC[C@H](C6)[C@H]5C(=O)NN(C(C)=O)C(C)C)[nH]4)cc3)cc2)[nH]1)C(C)C [AA_300_ENDOA2],0.101 to 1,10 to 100,> 1
COC(=O)N[C@H](C(=O)N1CCC[C@H]1c1ncc(-c2ccc(-c3ccc(-c4cnc(C5C6CCC(C6)[C@@H]5C(=O)NC(C)c5cccnc5)[nH]4)cc3)cc2)[nH]1)C(C)OC (stereo partly drawn) [AA_251_B],0.101 to 1,1 to 10,> 1
COC(=O)N[C@H](C(=O)N1CCC[C@H]1c1ncc(-c2ccc(-c3ccc(-c4cnc([C@@H]5[C@H]6CC[C@H](C6)[C@H]5C(=O)N[C@@H](CO)c5cccnc5)[nH]4)cc3)cc2)[nH]1)C(C)C [AA_243_ENDOA2_A],0.001 to 0.1,1 to 10,> 1
COC(=O)N[C@H](C(=O)N1CCC[C@H]1c1ncc(-c2ccc(-c3ccc(-c4cnc(C5C6CCC(C6)[C@@H]5C(=O)NNc5nccnc5Cl)[nH]4)cc3)cc2)[nH]1)[C@@H](C)OC (stereo partly drawn) [AA_250_A],0.101 to 1,10 to 100,> 1
COC(=O)N[C@H](C(=O)N1CCC[C@H]1c1ncc(-c2ccc(-c3ccc(-c4cnc(C5C6CCC(C6)[C@@H]5C(=O)N(C)c5ccccn5)[nH]4)cc3)cc2)[nH]1)[C@@H](C)OC (stereo partly drawn) [AA_247_A],0.001 to 0.1,0.101 to 1,> 1
COC(=O)N[C@H](C(=O)N1CCCC1c1ncc(-c2ccc(-c3ccc(-c4cnc([C@H]5C6CCC(C6)C5C(=O)NCc5cccnc5)[nH]4)cc3)c(F)c2)[nH]1)[C@@H](C)OC (stereo partly drawn) [AA_280_B],0.001 to 0.1,0.101 to 1,> 1
COC(=O)N[C@H](C(=O)N1CCC[C@H]1c1ncc(-c2ccc(-c3ccc(-c4cnc(C5C6CCC(C6)[C@@H]5C(=O)N(NC(=O)OC)C(C)C)[nH]4)cc3)cc2Cl)[nH]1)C(C)C (stereo partly drawn) [AA_156],0.001 to 0.1,1 to 10,> 1
COC(=O)N[C@H](C(=O)N1C[C@@H](OC)C[C@H]1c1ncc(-c2ccc(-c3ccc(-c4cnc([C@H]5C6CCC(C6)[C@@H]5C(=O)NCc5cccnc5)[nH]4)cc3)cc2)[nH]1)[C@@H](C)OC (stereo partly drawn) [AA_231_B],0.001 to 0.1,1 to 10,> 1
COC(=O)N[C@H](C(=O)N1CCC[C@H]1c1ncc(-c2ccc(-c3ccc(-c4cnc([C@@H]5C6CCC(C6)[C@H]5C(=O)NCc5cccc(N)c5)[nH]4)cc3)cc2)[nH]1)C(C)C (stereo partly drawn) [AA_199_B],0.001 to 0.1,10 to 100,> 1
COC(=O)N[C@H](C(=O)N1CCC[C@H]1c1ncc(-c2ccc(-c3ccc(-c4cnc(C5C6CCC(C6)[C@@H]5C(=O)N[C@H](c5cccnc5)C(C)C)[nH]4)cc3)cc2)[nH]1)[C@@H](C)OC (stereo partly drawn) [AA_267_A],0.001 to 0.1,0.101 to 1,> 1
COC(=O)N[C@H](C(=O)N1CCC[C@H]1c1ncc(-c2ccc(-c3ccc(-c4cnc([C@H]5C6CCC(C6)[C@@H]5C(=O)NCc5cccnc5C5CC5)[nH]4)cc3)cc2)[nH]1)C(C)C (stereo partly drawn) [AA_234_A],0.001 to 0.1,1 to 10,> 1
COC(=O)N[C@H](C(=O)N1CCC[C@H]1c1ncc(-c2ccc(-c3ccc(-c4cnc(C5C6CCC(C6)[C@H]5C(=O)N[C@H](C)c5cccnc5)[nH]4)cc3)cc2)[nH]1)[C@@H](C)OC (stereo partly drawn) [AA_253_B],0.101 to 1,10 to 100,> 1
COC(=O)N[C@H](C(=O)N1CC2(CCCC2)C[C@H]1c1ncc(-c2ccc(-c3ccc(-c4[nH]c([C@@H]5CCCN5C(=O)[C@@H](NC(=O)OC)[C@@H](C)OC)c5c4COC5)cc3)cc2)[nH]1)[C@@H](C)OC [AG_111],0.001 to 0.1,0.101 to 1,> 1
COC(=O)N[C@H](C(=O)N1CCC[C@H]1c1ncc(-c2ccc(-c3ccc(-c4cnc(C5C6CCC(C6)[C@@H]5C(=O)NCCc5ccncc5)[nH]4)cc3)cc2)[nH]1)[C@@H](C)OC (stereo partly drawn) [AA_266_A],0.101 to 1,1 to 10,> 1
COC(=O)N[C@H](C(=O)N1CCC[C@H]1c1[nH]c(-c2ccc(-c3ccc(-c4cnc([C@@H]5CCCN5C(=O)[C@@H](NC(=O)OC)[C@@H](C)O)[nH]4)cc3)cc2)c2c1CCC2)C(C)C [AG_090],0.001 to 0.1,1 to 10,> 1
COC(=O)N[C@H](C(=O)N1CCC[C@H]1c1ncc(-c2ccc(-c3ccc(-c4cnc(C5CCCC[C@@H]5C(=O)N(NC(=O)OC)C(C)C)[nH]4)cc3C(F)(F)F)cc2)[nH]1)C(C)C (stereo partly drawn) [AA_127],0.101 to 1,10 to 100,> 10
COC(=O)N[C@H](C(=O)N1CCC[C@H]1c1ncc(-c2ccc(-c3ccc(-c4cnc([C@H]5CCCC[C@@H]5C(=O)NCc5cccnc5)[nH]4)cc3)cc2)[nH]1)C(C)C [AA_150_A],0.101 to 1,10 to 100,> 10
COC(=O)N[C@H](C(=O)N1CCC[C@H]1c1ncc(-c2ccc(-c3ccc(-c4cnc(C5C6CCC(C6)[C@H]5C(=O)NCCO)[nH]4)cc3)cc2)[nH]1)[C@@H](C)OC (stereo partly drawn) [AA_220_A],0.101 to 1,10 to 100,> 1
COC(=O)N[C@H](C(=O)N1CCC[C@H]1c1ncc(-c2ccc(-c3ccc(-c4cnc(C5C6CCC(C6)[C@H]5C(=O)NCc5cccnc5C(C)C)[nH]4)cc3)cc2)[nH]1)[C@@H](C)OC (stereo partly drawn) [AA_245_A],0.001 to 0.1,10 to 100,> 1
COC(=O)N[C@H](C(=O)N1CCC[C@H]1c1ncc(-c2ccc(-c3ccc(-c4[nH]c([C@@H]5CCCN5C(=O)[C@@H](NC(=O)OC)[C@@H](C)OC)c5c4COC5)cc3)cc2)[nH]1)[C@@H](C)O [AG_105],0.001 to 0.1,0.101 to 1,> 1
COC(=O)N[C@H](C(=O)N1CC2(C[C@H]1c1ncc(-c3ccc(-c4ccc(-c5cnc(C6C7CCC(C7)[C@H]6C(=O)NCc6cccnc6)[nH]5)cc4)cc3)[nH]1)OCCO2)C(C)C (stereo partly drawn) [AA_192_B],0.001 to 0.1,1 to 10,> 1
COC(=O)N[C@H](C(=O)N1CCC[C@H]1c1ncc(-c2ccc(-c3ccc(-c4cnc(C5C6CCC(C6)[C@H]5C(=O)NNc5nccnc5Cl)[nH]4)cc3)cc2)[nH]1)[C@@H](C)OC (stereo partly drawn) [AA_250_B],1 to 10,10 to 100,> 1
CNC(=O)[C@@H](NC(=O)[C@@H]1[C@@H]2CC[C@@H](C2)[C@H]1c1ncc(-c2ccc(-c3ccc(-c4cnc([C@@H]5CCCN5C(=O)[C@@H](NC(=O)OC)C(C)C)[nH]4)cc3)cc2)[nH]1)C(C)C [AA_298_ENDOA2],0.001 to 0.1,1 to 10,> 1
COC(=O)N[C@H](C(=O)N1CCCC1c1cc(Cl)c(-c2ccc(-c3ccc(-c4cnc([C@@H]5CCCN5C(=O)[C@@H](NC(=O)OC)C(C)C)[nH]4)cc3)cc2)[nH]1)C(C)C (stereo partly drawn) [AG_087],0.001 to 0.1,0.101 to 1,> 1
COC(=O)N[C@H](C(=O)N1CCC[C@H]1c1ncc(-c2ccc(-c3ccc(-c4cnc(C5C6CCC(C6)[C@@H]5C(=O)NCc5cncc(C(C)C)c5)[nH]4)cc3)cc2)[nH]1)[C@@H](C)OC (stereo partly drawn) [AA_254_A],0.101 to 1,10 to 100,> 1
